Results as given in patent US20160374975A1, “COMPOSITION FOR TREATMENT OF NAFLD” (Pronova BioPharma Norge AS, priority 2015, published 2016).

Key:
HepG2 cells = test: Intracellular lipid accumulation in steatic HepG2 cells (in vitro model of NAFLD), oil red O staining, OD 490 nm; assay type: cell-based, human; conditions: steatic HepG2 cells treated with EPA/DHA, PCB 153 final concentration 50 μM, 24 hours at 37° C., versus DMSO alone
Description: Palmitic (C16:0) and oleic (C18:1) acids are the most abundant fatty acids in liver triglycerides in both normal subjects and patients with NAFLD. The human hepatocyte-derived cell line HepG2 cells were seeded in a 96 well plate at a density of 5000 cells/well on Day 1. […] Intracellular accumulation of lipids was detected and quantified by oil red O staining using spectrophotometry at wavelength 490 nm. Oil red O color intracellular lipids droplets after cell fixation with paraformaldehyde. Absence of cell death was confirmed using a colometric lactate dehydrogenase (LDH) assay. Lactate dehydrogenase (LDH) is a cytosolic enzyme present in many different types of cells. When the plasma membrane is damaged, LDH is released into cell culture media. The released LDH was quantified by a coupled enzymatic reaction using a LDH cytotoxicity kit, and following the procedure according to the manufacture's instruction.
To assess the effect of n-3 PUFA on experimental NAFLD, the HepG2cells were treated with EPA and DHA at a concentration of 100 μM (1:1), or with fatty acids-free bovine serum albumin (BSA), as a control, together with 1 mM Oleic/Palmitic acid for 24 hours. […] Intracellular accumulation of lipids was detected and quantified by oil red O staining using spectrophotometry at wavelength 490 nm. […]

mice = conditions: HFD+PCB 153 treated mice compared with HFD treatment alone; cited from earlier work
male C57BL6/J mice = conditions: PCB 153 exposure in high-fat-fed mice; not seen with HFD alone or PCB 153 alone; cited from earlier work

For Clc1cc(Cl)c(-c2cc(Cl)c(Cl)cc2Cl)cc1Cl [PCB 153, polychlorinated biphenyl 153], which “Effect on the benefit of n-3 PUFA (EPA/DHA) on development of steatosis (intracellular lipids, oil red O)” value (HepG2 cells) is on record?
The value was “diminish the beneficial effect”.

And the “Reduction of hepatic glutathione” value (mice)?
Its value is 6 fold.

And the “Visceral adiposity, hepatic steatosis, and plasma adipokines” value (male C57BL6/J mice)?
The value was “increased”.
